This passage reports IC50, AC50 and EC50 results from ChEMBL document CHEMBL1201862, “PubChem BioAssay data set” (2004).

The nature of test [1]: cells. The class given is functional.
The nature of test [2]: Luminescence Cell-Based Dose Retest to Confirm Inhibitors of Cancer Stem Cells. [Related pubchem assays (depositor defined):AID2717, AID2721]. The class given is functional. To be noted: Homo sapiens.
Test [3] deals with Cytochrome P450 2C19 (Homo sapiens, UniProt P33261). The experiment in a line: Cytochrome panel assay with activity outcomes. Panel member name: p450-cyp2c19 Compounds with AC50 equal or less than 10 uM are considered active. The class given is functional. Particulars: read-out: AC50.
The target in test [4] is Cytochrome P450 2C9 (Homo sapiens, UniProt P11712).
The target in test [5] is T1, Cytochrome P450 1A2 (Homo sapiens, UniProt P05177).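 Also: PubChem cytochrome P450 panel assay, CYP1A2 panel member.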
T1 sequence (P05177 whole entry): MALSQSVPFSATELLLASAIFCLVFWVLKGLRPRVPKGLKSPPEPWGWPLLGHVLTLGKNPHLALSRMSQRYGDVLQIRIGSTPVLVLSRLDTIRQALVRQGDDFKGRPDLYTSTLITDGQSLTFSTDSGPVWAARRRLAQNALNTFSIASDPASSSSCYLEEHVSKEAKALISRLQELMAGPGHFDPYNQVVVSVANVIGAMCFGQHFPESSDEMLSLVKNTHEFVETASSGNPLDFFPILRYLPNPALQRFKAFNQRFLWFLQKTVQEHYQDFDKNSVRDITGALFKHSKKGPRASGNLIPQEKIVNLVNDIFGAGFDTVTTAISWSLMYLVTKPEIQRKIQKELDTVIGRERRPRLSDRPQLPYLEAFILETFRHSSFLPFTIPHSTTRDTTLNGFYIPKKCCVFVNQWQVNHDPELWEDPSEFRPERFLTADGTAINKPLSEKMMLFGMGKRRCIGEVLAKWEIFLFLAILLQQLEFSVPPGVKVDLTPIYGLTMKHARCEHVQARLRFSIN

In test [6] the target is Cytochrome P450 3A4 (Homo sapiens, UniProt P08684).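 Also: CYP3A4 tested as one member of a cytochrome P450 panel screen.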
The target in test [7] is Cytochrome P450 2D6 (Homo sapiens, UniProt P10635).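 Also: CYP2D6 member of a cytochrome P450 panel assay.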
The target in test [8] is T2, Zinc finger protein mex-5 (Caenorhabditis elegans, UniProt Q9XUB2).
T2 sequence (Q9XUB2 whole entry): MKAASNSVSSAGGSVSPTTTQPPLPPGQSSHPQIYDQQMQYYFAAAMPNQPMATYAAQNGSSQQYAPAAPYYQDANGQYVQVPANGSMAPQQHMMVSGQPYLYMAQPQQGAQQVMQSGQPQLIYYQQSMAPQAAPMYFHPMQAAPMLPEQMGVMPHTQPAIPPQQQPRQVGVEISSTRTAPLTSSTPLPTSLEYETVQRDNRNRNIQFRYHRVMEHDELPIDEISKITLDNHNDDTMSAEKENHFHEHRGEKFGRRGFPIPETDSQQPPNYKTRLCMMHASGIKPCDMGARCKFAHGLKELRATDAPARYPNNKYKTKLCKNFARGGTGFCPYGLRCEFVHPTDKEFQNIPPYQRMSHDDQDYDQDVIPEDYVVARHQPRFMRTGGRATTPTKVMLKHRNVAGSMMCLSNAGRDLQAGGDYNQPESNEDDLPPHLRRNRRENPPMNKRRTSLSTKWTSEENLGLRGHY
The experiment in a line: potency of MEX-5 RNA-binding blockers – biochemical, C. elegans, fluorescence polarization, dose response (AID 1960). (In general: In fluorescence polarisation assays a small probe gives low polarisation when free and higher when bound to something large.)

Test [9] deals with T3, RNA-binding protein pos-1 (Caenorhabditis elegans, UniProt G5EF15).
T3 sequence (G5EF15 whole entry): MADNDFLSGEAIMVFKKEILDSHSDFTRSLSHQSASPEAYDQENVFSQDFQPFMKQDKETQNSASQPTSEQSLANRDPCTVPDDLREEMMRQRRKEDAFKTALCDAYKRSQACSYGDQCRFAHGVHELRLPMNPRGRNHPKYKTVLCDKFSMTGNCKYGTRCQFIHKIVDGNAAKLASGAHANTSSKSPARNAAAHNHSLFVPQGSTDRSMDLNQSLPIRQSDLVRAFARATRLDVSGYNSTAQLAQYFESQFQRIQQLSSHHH
The experiment in a line: disruptors of C. elegans POS-1 RNA interaction – biochemical, fluorescence polarization, dose response (AID 1964).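 Also: purified POS-1 fused to maltose binding protein made in E. coli; potency of compounds blocking POS-1 binding to fluorescent RNA.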

The source made the active and inactive calls.

Sequence of Cytochrome P450 2C9 (P11712 whole entry): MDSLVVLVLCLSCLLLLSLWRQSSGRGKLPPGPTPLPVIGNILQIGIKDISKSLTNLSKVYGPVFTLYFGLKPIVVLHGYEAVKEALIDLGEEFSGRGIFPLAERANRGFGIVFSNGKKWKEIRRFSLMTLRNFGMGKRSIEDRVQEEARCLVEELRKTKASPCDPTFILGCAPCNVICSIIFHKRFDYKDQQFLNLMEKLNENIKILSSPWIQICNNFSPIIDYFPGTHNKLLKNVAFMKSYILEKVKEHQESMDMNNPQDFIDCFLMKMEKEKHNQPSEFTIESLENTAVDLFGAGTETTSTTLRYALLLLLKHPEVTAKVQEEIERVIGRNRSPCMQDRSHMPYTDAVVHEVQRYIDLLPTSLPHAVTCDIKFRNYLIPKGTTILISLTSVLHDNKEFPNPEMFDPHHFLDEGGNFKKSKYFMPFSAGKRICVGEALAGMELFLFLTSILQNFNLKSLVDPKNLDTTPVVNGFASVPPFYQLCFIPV
Sequence of Cytochrome P450 2C19 (P33261 whole entry): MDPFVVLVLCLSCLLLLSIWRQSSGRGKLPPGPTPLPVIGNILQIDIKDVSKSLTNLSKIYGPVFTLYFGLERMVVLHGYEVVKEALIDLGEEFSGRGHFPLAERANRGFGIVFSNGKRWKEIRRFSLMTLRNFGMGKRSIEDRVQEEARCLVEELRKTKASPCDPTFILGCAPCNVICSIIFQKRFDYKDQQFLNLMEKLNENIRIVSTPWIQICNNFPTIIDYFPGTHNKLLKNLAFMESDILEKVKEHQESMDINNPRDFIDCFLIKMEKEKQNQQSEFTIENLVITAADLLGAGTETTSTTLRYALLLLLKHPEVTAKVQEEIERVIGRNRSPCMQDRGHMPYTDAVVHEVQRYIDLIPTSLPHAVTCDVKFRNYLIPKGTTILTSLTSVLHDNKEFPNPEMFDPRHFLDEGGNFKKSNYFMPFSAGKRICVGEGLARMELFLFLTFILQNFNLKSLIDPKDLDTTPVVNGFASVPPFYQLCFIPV
Sequence of Cytochrome P450 2D6 (P10635 whole entry): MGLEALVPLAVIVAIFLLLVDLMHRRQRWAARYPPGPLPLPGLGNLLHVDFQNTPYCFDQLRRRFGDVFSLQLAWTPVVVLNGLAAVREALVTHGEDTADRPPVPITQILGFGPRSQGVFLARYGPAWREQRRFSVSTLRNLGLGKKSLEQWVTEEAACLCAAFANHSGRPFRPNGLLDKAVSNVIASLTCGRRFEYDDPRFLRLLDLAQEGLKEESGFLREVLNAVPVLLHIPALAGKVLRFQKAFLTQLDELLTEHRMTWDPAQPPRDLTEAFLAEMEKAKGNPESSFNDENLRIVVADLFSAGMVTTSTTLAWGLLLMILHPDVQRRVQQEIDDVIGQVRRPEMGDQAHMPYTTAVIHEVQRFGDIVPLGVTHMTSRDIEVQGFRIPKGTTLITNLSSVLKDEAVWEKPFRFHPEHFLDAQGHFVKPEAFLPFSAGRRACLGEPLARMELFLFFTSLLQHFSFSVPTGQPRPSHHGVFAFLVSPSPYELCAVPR
Sequence of Cytochrome P450 3A4 (P08684 whole entry): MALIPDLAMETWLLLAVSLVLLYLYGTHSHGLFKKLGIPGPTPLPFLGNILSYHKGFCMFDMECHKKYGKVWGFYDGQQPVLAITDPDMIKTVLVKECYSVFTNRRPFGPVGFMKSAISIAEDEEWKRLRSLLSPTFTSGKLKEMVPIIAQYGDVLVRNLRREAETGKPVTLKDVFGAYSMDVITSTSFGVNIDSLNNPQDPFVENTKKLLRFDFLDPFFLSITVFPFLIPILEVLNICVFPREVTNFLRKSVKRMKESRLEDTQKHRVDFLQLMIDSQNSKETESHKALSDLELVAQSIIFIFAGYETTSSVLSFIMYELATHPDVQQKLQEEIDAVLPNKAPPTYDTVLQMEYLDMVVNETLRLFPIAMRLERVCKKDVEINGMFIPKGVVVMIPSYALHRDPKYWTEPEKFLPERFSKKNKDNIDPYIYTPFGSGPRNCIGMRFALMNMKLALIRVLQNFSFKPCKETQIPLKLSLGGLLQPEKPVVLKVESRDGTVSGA

As a reminder, the IC50 is the concentration at which inhibition is half-maximal. Regarding `O=C(Oc1cccc2cccnc12)c1cccc([N+](=O)[O-])c1`, the IC50 in [1] was 10.9 µM (active).

Broadly, the AC50 is the concentration at which the activity in the assay is half-maximal. For the compound `CN(C)CCOc1ccc(C(C)(C)c2ccccc2)cc1`, in test [2], the AC50 is 1.96 µM (active).

`Cn1cccc1C(=O)N1CCC[C@@]2(CCN(Cc3cc(C(F)(F)F)cc(C(F)(F)F)c3)C2)C1`: the AC50 in test [3] and in [4] was 39.8 µM (inconclusive) in each case.

`O=C(O)c1ccccc1C(=O)NNc1ccc(Cl)cc1`: the figures for the AC50 in test [3], in test [2] and in test [5] were 5.01 µM (inconclusive), 0.983 µM (active) and 6.31 µM (inconclusive), respectively.

As to `O=C(C[C@H](c1ccccc1)c1c(O)c2ccccc2oc1=O)c1ccccc1`, the AC50 in [6] was 3.16 µM (inconclusive).

Turning to `CN(C)CCNc1nc2sc3c(c2c(=O)n1-c1ccccc1)CCCCC3`, the AC50 in test [2] is 4.27 µM (active).

Regarding `COc1ccc(CNc2ccnc(-c3ccccc3CN(C)C)n2)c(OC)c1`, the AC50 in test [5] was 15.8 µM (inconclusive).

With `CCNc1ncc2nc(-c3cccs3)c(=O)n(Cc3cccc(OC)c3)c2n1`, the AC50 in test [6] was 12.6 µM (inconclusive); in test [5] it was 0.126 µM (inconclusive).

On to `CN1CCN(c2c(F)cc3c(=O)c(C(=O)O)cn4c3c2SCC4)CC1`, for which, in [1], the IC50 is 8.05 µM (active).

`Cc1cccc2cc(CN(Cc3ccccc3)C(=O)c3cccc(F)c3)c(Cl)nc12`: the AC50 in [5] is 11.2 µM (inconclusive); in test [7], 15.8 µM (inconclusive).

Turning to `O=C(COC(=O)c1cc(Cl)ccc1O)c1ccc2c(c1)OCO2`, the half-maximal inhibitory concentration (IC50) in [1] is 12.1 µM (active).

In the case of `N[C@H](Cc1ccc2oc3cc(=O)c4ccccc4c-3nc2c1)C(=O)O`, in test [6], the concentration at half-maximal activity (AC50) is 3.98 µM (inconclusive).

Regarding `COC(=O)CN(C#N)c1nc(SC)nc(N(C)C)n1`, the IC50 in [1] was 18.9 µM (active).

Regarding `Cc1ccccc1OCCNC=C1C(=O)N(C)C(=O)N(C)C1=O`, the AC50 in [6] is 20 µM (inconclusive); in [4] it was 0.0126 µM (inconclusive).

On to `COc1ccccc1NC(=O)C1=C(C)Nc2nnnn2C1c1cccc(Br)c1` (centres undefined), for which the AC50 in test [5] was 31.6 µM (inconclusive); in test [7], 15.8 µM (inconclusive).

For the compound `Cc1ccc2cc3c(nc2c1)OCC3`, the IC50 in test [1] is > 50 µM (active).

In the case of `CO[C@@H]1COC(=O)[C@@H](CCSC)NC(=O)C/C=C\[C@@H](C)COC(=O)CCC[C@H]1C`, the AC50 in [6] was 3.98 µM (inconclusive).

On to `Cc1cccc(CN2CCN([C@@H](c3ccccc3)c3ccc(Cl)cc3)CC2)c1`, for which the concentration at half-maximal activity (AC50) in test [3] is 2.51 µM (inconclusive); in test [5] it was 10 µM (inconclusive).

As to `CC1=CC(C)(C)N(C)C(=O)N1c1ccc(Cl)cc1`, the figures for the AC50 in test [5] and in [4] were 17.8 µM (inconclusive) and 31.6 µM (inconclusive), respectively.

As for `C[C@@H](Cc1ccc(Cl)cc1Cl)NO`, in [5], the half-maximal activity concentration (AC50) was 0.251 µM (active).

With `CCCc1cc(-c2nc(-c3ccc(C)cc3)cs2)ccn1`, in test [2], the AC50 is 3.62 µM (active).

With `CCOC(=O)CSCC(NC(=O)OC(C)(C)C)C(=O)OCC` (centres undefined), the AC50 in test [5] was 25.1 µM (inconclusive); in [4], 14.1 µM (inconclusive).

As for `Cc1ccc(C(=O)Cn2nnc3c(sc4nc5c(c(-c6ccccc6)c43)CCC5)c2=O)cc1`, the AC50 in test [3] is 25.1 µM (inconclusive); in test [2], 0.462 µM (active).

Turning to `CCOC(=O)COc1cc(O)c2c(=O)cc(-c3ccccc3)oc2c1`, in [1], the IC50 is 0.86 µM (active).

Consider `COCC(=O)N1CCC2(CCCN(c3ccncc3)C2)CC1`, for which the AC50 in test [6] was 25.1 µM (inconclusive).

Turning to `N[C@H]1C[C@H]1c1ccccc1`, the AC50 in test [7] and in test [4] was 12.6 µM (inconclusive) throughout.

`COCCn1c(C(=O)N2CCCC2)cc2c1C[C@H]1CN(C(=O)c3ccccc3)[C@@](Cc3ccc(OC)cc3)(C(=O)OC)[C@@H]21`: the AC50 in test [3] and in test [4] was 39.8 µM (inconclusive) throughout.

One may read the EC50 as the midpoint of the concentration-response curve. On to `COc1ccc(C2C(C#N)=C(N)OC3=C2C(=O)CC(C)(C)C3)cc1Cn1cc([N+](=O)[O-])cn1` (centres undefined), for which the EC50 in test [8] and in [9] was > 300 µM (not active) throughout.

As for `O=C(Nc1cccc([N+](=O)[O-])c1)c1ccc(CSc2ccccc2)cc1`, the values for the AC50 in [3], in [6] and in test [4] were 14.1 µM (inconclusive), 20 µM (inconclusive) and 0.562 µM (inconclusive), respectively.

Consider `CN(C)c1ncnc2ccc(-c3ccccc3C(F)(F)F)cc12`, for which the figures for the half-maximal activity concentration (AC50) in test [6] and in test [7] were 10 µM (inconclusive) and 15.8 µM (inconclusive), respectively.

In the case of `CC#C[C@]1(O)CC[C@H]2[C@@H]3CCC4=CC(=O)CCC4=C3[C@H](c3ccc(N(C)C)cc3)C[C@@]21C`, the half-maximal activity concentration (AC50) in test [5] was 25.1 µM (inconclusive).

In the case of `CCCCCCSc1cccc(-c2nc3ccc(Cl)cn3c2NCc2ccccc2)c1`, the concentration at half-maximal activity (AC50) in [2] was 1.55 µM (active).

As to `Cc1c(NC(=O)/C=C/c2cn(-c3ccccc3)nc2-c2ccc(F)cc2)c(=O)n(-c2ccccc2)n1C`, the AC50 is 25.1 µM (inconclusive) in [6], 28.2 µM (inconclusive) in test [5] and 20 µM (inconclusive) in test [4].

As to `CC1CCCN(c2ccc(C(=O)N3CCC4(CC3)OCCO4)cc2[N+](=O)[O-])C1` (centres undefined), the half-maximal activity concentration (AC50) in [2] was 4.55 µM (active).

For the compound `CCN1CCN(c2cc(C(C)(C)C)nc3c(-c4ccccc4)c(C)nn23)CC1`, in test [2], the AC50 is 5.68 µM (active).

In the case of `Cc1ccnc(NC(=O)COc2ccc3c(c2)CCC3)c1`, the IC50 in [1] is 24.5 µM (active).

As for `O=[N+]([O-])c1cc(F)c(N2CCOCC2)cc1N1CCCCC1`, the AC50 in test [6] was 17.8 µM (inconclusive).

On to `CS(=O)(=O)N1CCC[C@@]2(CCN(Cc3nccs3)C2)C1`, for which the AC50 in test [3] is 39.8 µM (inconclusive); in test [6] it was 12.6 µM (inconclusive); in test [7], 39.8 µM (inconclusive).

For the compound `CC(C)c1cccc(C(C)C)c1OC(=O)[C@H]1OC(c2ccc(Br)cc2)=C[C@@H]1c1ccc(Br)cc1`, in [2], the AC50 was 3.58 µM (active).

In the case of `COc1ccc(CCNc2cc(C)nc3c(-c4ccc(Cl)cc4)c(C)nn23)cc1OC`, the concentration at half-maximal activity (AC50) in test [2] was 2.88 µM (active).

As for `O=C(CCCC1=NS(=O)(=O)c2ccccc2N1)N1CCC2(CC1)OCCO2`, the results for the AC50 in test [3], in test [6] and in test [4] were 17.8 µM (inconclusive), 35.5 µM (inconclusive) and 25.1 µM (inconclusive), respectively.

For the compound `CCc1cc2c(nc1CC)CCN(CC/C(C)=N/OC[C@@H](O)COCc1ccco1)C2`, the concentration at half-maximal activity (AC50) in test [6] was 3.16 µM (inconclusive); in test [7], 3.98 µM (inconclusive).

As to `CCOC(=O)n1c(=O)n(Cc2ccccc2Cl)c2ccccc21`, the AC50 is 15.8 µM (inconclusive) in [6] and 28.2 µM (inconclusive) in [7].

`CCOC(=O)CC1C(=O)NCCN1S(=O)(=O)c1ccccc1Cl` (centres undefined): the AC50 in [3] is 11.2 µM (inconclusive); in test [6] it was 14.1 µM (inconclusive); in test [7], 0.891 µM (inconclusive); in test [4], 0.00562 µM (inconclusive).

For `COc1ccc(-c2sc3ccccc3c2/C=C/c2ccc(N)cc2)cc1`, the AC50 in test [2] is 3.98 µM (active).

On to `CCS(=O)(=O)c1ccc(O)c(NC(=O)Nc2ccccc2)c1`, for which the AC50 is 39.8 µM (inconclusive) in test [3], 20 µM (inconclusive) in test [5] and 7.08 µM (inconclusive) in [4].

Regarding `CN1CCN(c2ccc([N+](=O)[O-])c(NCc3ccco3)c2)CC1`, in test [2], the AC50 is 0.512 µM (active).

Turning to `CCCCC/N=c1\ccn(Cc2ccccc2)c2ccccc12` [CP-339818], the half-maximal activity concentration (AC50) was 15.8 µM (inconclusive) in test [6] and 25.1 µM (inconclusive) in test [5].
